In one assay the target is T1, soluble uPAR (Homo sapiens, UniProt Q03405).
T1 construct: Purified soluble uPAR was biotinylated
Kind of assay: 125I-ATF competition binding to immobilized soluble uPAR (Activity Assay). Particulars: competition with iodinated human uPA ATF tracer (100-500 pM), 2h at room temperature, PBS/0.1% BSA, triplicate. An excerpt:
Purified soluble uPAR was biotinylated with NHS-biotin (Molecular Probes) and immobilized at 0.3 Tg/mL in phosphate-buffered saline (PBS)/0.1% BSA on streptavidin-coated Immulon-2 96-well Removawell plates. Human uPA N-terminal fragment (ATF; from M. Shuman, University of California, San Francisco) was iodinated by the Iodo-Gen method (Pierce). Unincorporated ^125 I was separated from labeled protein by Sephadex G-25 chromatography. The specific activity of the labeled protein was between 5×10^5 and 1×10^6 […]. The iodinated tracer (100-500 pM) was incubated with the peptides prepared in Example 1 triplicate for 2h at room temperature in PBS/0.1% BSA in a total volume of 200 TL. The plates were washed with PBS/0.1% BSA 3X, and remaining bound radioactivity was measured on an LKB 1277 Gammamaster. Scatchard analysis was performed by using the LIGAND program (Biosoft, Milltown, N.J.).

Assay [1] has as its system SaOS-2 osteosarcoma cell line. Particulars: S. A. Rabbani et al.; cited from earlier work.
For assay [2] the following is noted: U937 fibroblast cells; S. A. Rabbani et al.; cited from earlier work.
Another assay concerns the target uPAR (Homo sapiens, UniProt Q03405). As to conditions: E. Appella et al., J Biol Chem (1987), cited from earlier work.

Results on ten compounds are retold here after patent publication US6030940A, “Peptide analog inhibitors of urokinase receptor activity” (Chiron Corporation, priority 1997, dated 2000).

“And” between values parts separate entries of the source, which are not always exact repeats. Equal values may be shown once. Read-outs that look alike come from different tables or passages of the source. Square brackets hold non-standard residues; d marks the D form. Ends that are not written are not given here. Peptide text beside a SMILES is read from it. 1Nal = N[C@@H](Cc1cccc2ccccc12)C(=O)O

What is called IC50 is the midpoint of a concentration-inhibition curve.

T1 sequence (Q03405 23-305 limits assumed): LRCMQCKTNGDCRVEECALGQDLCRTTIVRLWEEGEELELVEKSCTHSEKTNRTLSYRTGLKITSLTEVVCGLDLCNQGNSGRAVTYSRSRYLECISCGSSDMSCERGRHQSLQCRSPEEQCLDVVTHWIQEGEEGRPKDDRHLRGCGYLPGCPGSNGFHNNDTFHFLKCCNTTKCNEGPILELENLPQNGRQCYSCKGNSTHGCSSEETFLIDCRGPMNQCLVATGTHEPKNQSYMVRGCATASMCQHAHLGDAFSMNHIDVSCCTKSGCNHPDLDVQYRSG
Chain of uPAR (Q03405 23-335): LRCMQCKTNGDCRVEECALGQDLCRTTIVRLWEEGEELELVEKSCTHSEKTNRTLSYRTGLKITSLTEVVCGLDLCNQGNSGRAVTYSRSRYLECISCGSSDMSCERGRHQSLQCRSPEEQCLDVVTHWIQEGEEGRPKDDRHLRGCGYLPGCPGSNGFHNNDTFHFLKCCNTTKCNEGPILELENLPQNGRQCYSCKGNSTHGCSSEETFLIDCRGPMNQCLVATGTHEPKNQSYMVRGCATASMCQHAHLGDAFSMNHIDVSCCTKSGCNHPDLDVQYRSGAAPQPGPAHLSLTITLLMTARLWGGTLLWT

With `CC(C)C[C@H](NC(=O)[C@H](Cc1ccc(O)cc1)NC(=O)[C@H](CCC(N)=O)NC(=O)CNC(=O)[C@H](Cc1ccccc1)NC(=O)[C@H](CC(N)=O)NC(=O)[C@@H](N)CC(C)C)C(=O)N[C@@H](Cc1c[nH]c2ccccc12)C(=O)N[C@@H](Cc1ccc(O)cc1)C(=O)N[C@H](C(=O)O)[C@@H](C)O` [SEQ ID NO: 1, LNFGQYLWYT] (H-LNFGQYLWYT-OH), the IC50 at soluble uPAR (read-out: IC50) came out at 41 ± 17 nM. For `CC(C)C[C@H](NC(=O)[C@H](Cc1ccc(O)cc1)NC(=O)[C@H](CCC(N)=O)NC(=O)CNC(=O)[C@H](Cc1ccccc1)NC(=O)[C@H](CC(N)=O)NC(=O)[C@@H](N)CC(C)C)C(=O)N[C@@H](Cc1cccc2ccccc12)C(=O)N[C@@H](Cc1ccc(O)cc1)C(=O)N[C@H](C(=O)O)[C@@H](C)O` [SEQ ID NO: 4, LNFGQYLnAYT] (H-LNFGQYL[1Nal]YT-OH), the IC50 at soluble uPAR (IC50 (nM)) is 7 nM and 6 nM. `CC(C)C[C@H](NC(=O)[C@H](Cc1ccc(O)cc1)NC(=O)[C@H](CCC(N)=O)NC(=O)[C@@H](CO)NC(=O)[C@H](Cc1ccccc1)NC(=O)[C@H](CC(N)=O)NC(=O)[C@@H](N)CC(C)C)C(=O)N[C@@H](Cc1c[nH]c2ccccc12)C(=O)N[C@@H](Cc1ccc(O)cc1)C(=O)N[C@H](C(=O)O)[C@@H](C)O` [SEQ ID NO: 5, LNFdSQYLWYT] (H-LNF[dS]QYLWYT-OH): the concentration for half-maximal inhibition (IC50) on soluble uPAR (read-out: IC50) was 7 nM and 11 nM.

`CC(C)C[C@H](NC(=O)[C@H](Cc1ccc(O)cc1)NC(=O)[C@H](CCC(N)=O)NC(=O)[C@@H](CO)NC(=O)[C@H](Cc1ccccc1)NC(=O)[C@H](CC(N)=O)NC(=O)[C@@H](N)CC(C)C)C(=O)N[C@@H](Cc1cccc2ccccc12)C(=O)N[C@@H](Cc1ccc(O)cc1)C(=O)N[C@H](C(=O)O)[C@@H](C)O` [SEQ ID NO: 7, LNFdSQYLnAYT] (H-LNF[dS]QYL[1Nal]YT-OH): the half-maximal inhibitory concentration (IC50) at soluble uPAR (read-out: IC50) came out at 33 ± 3 nM.

Consider `CC(C)C[C@H](NC(=O)[C@H](Cc1ccc(O)cc1)NC(=O)[C@@H](CS)NC(=O)CNC(=O)[C@H](Cc1ccccc1)NC(=O)[C@H](CC(N)=O)NC(=O)[C@@H](N)CC(C)C)C(=O)N[C@@H](Cc1c[nH]c2ccccc12)C(=O)N[C@@H](CS)C(=O)N[C@H](C(=O)O)[C@@H](C)O` [SEQ ID NO: 8, LNFGdCYLWCT] (H-LNFG[dC]YLWCT-OH), for which the IC50 on soluble uPAR (read-out: IC50) is 8 nM and 14 nM.

In the case of `CC(C)C[C@H](NC(=O)[C@H](Cc1ccc(O)cc1)NC(=O)[C@H](CS)NC(=O)[C@@H](CO)NC(=O)[C@H](Cc1ccccc1)NC(=O)[C@H](CS)NC(=O)[C@@H](N)CC(C)C)C(=O)N[C@@H](Cc1c[nH]c2ccccc12)C(=O)N[C@@H](Cc1ccc(O)cc1)C(=O)N[C@H](C(=O)O)[C@@H](C)O` [SEQ ID NO: 9, LCFdSCYLWYT] (H-LCF[dS]CYLWYT-OH), at soluble uPAR (read-out: IC50), the IC50 was 9 nM and 23 nM. For `CC(C)C[C@H](NC(=O)[C@H](Cc1ccc(O)cc1)NC(=O)[C@H](CS)NC(=O)[C@@H](CO)NC(=O)[C@H](Cc1ccccc1)NC(=O)[C@H](CS)NC(=O)[C@@H](N)CC(C)C)C(=O)N[C@@H](Cc1cccc2ccccc12)C(=O)N[C@@H](Cc1ccc(O)cc1)C(=O)N[C@H](C(=O)O)[C@@H](C)O` [SEQ ID NO: 10, LCFdSCYLnAYT] (H-LCF[dS]CYL[1Nal]YT-OH), the half-maximal inhibitory concentration (IC50) on soluble uPAR (read-out: IC50) amounted to 79 ± 10 nM.

Consider `CC(C)C[C@H](NC(=O)[C@H](Cc1ccc(O)cc1)NC(=O)[C@H](CS)NC(=O)[C@@H](CO)NC(=O)[C@H](Cc1ccccc1)NC(=O)[C@H](CC(N)=O)NC(=O)[C@@H](N)CC(C)C)C(=O)N[C@@H](Cc1c[nH]c2ccccc12)C(=O)N[C@@H](CS)C(=O)N[C@H](C(=O)O)[C@@H](C)O` [SEQ ID NO: 11, LNFdSCYLWCT] (H-LNF[dS]CYLWCT-OH), for which, at soluble uPAR (read-out: IC50), the IC50 turned out to be 225 ± 40 nM. For the compound “fucosylated EGF-like domain: fucosylated EGF-like domain (uPA4-43, produced by cleavage from pro-uPA) (LHQVPSNCDCLNGGT(Fuc)CVSNKYFSNIHWCNCPKKFGGQHCE; cysteine pairing not given here; UniProt P00749 24-63, looked up, fragment)”, the mitogenic activity result in assay [1] was “mitogenic”; in assay [2], “Neither fucosylated nor non-fucosylated EGF-like domain was mitogenic”. On to “uPA12-32: The critical domain alone, residues 12-32 of the uPA EGF-like domain (DCLNGGTCVSNKYFSNIHWCN; UniProt P00749 32-52, looked up, fragment)”, for which the “affinity relative to intact ATF (fold less)” value with uPAR is on record as “about 100 fold”. Also, in the assay with uPAR (read-out: affinity for uPAR), the Kd was 40 nM.
